Measurements from patent US20240245677A1, “SELECTED COMPOUNDS FOR TARGETED DEGRADATION OF BRD9” (C4 THERAPEUTICS, INC., priority 2021, published 2024).
Read-outs that look alike come from different tables or passages of the source.

Legend:
IKZF1 = target: T1, IKZF1 (Homo sapiens, UniProt Q13422+Q96SW2); experiment: IKZF1 HiBiT degradation assay in NCIH929.11 cells; assay type: cell-based
T1 construct: CRISPR-edited to endogenously express HiBiT tagged IKZF1; host or cells: NCIH929.11

BRD4 = target: T2, BRD4 (Homo sapiens, UniProt O60885); experiment: BRD4 HiBiT degradation assay in HEK293T.92 cells; assay type: cell-based
T2 construct: endogenously expressing BRD4 with HiBiT fusion tag via CRISPR; endogenous in cells; host or cells: HEK293T.92 (made in-house from 293T, ATCC CRL-3216)
From the text: This assay evaluates the degradation of Bromodomain Containing 4 (BRD4) induced by treatment with Compound 1 as measured by luminescence using Nano-Glo® HiBiT Lytic Assay System in HEK293 cells CRISPR-edited to endogenously express HiBiT tagged BRD4.
Nano-Glo® HiBiT Lytic Assay System was purchased from Promega (Catalog No. N3050, Madison, WI, USA). 293T cells were obtained from ATCC (Catalog No. CRL-3216, Manassas, VA, USA), and maintained in Dulbecco's modified Eagle medium (DMEM) (Catalog No. 12430112, ThermoFisher Scientific, Waltham, MA, USA) supplemented with 10% fetal bovine serum (FBS) (Catalog No. 16000-044, Gibco, Grand Island, NY, USA) at 37° C. in an atmosphere of 5% CO2 in air. The HiBiT polypeptide tag was introduced into the N-terminus of the endogenous BRD4 locus by CRISPR-Cas9 to produce the modified HEK293T.92 cell line. The HiBiT polypeptide allows reconstitution of NanoBiT enzyme following cell lysis and addition of the complementing LgBiT polypeptide that activates substrate to produce a luminescent signal that is directly proportional to the amount of HiBiT-tagged BRD4.
The HEK293T.92 cells were routinely sub-cultured to maintain cell density between 30-80% confluence, not to exceed 20 passages. Cells were washed with PBS pH 7.4 (Catalog No. 10010049, ThermoFisher Scientific, Waltham, MA, USA), trypsinized for 5 minutes at 37° C., and resuspended in fresh growth media without phenol red. An aliquot was diluted 2× with Trypan Blue solution 0.4% (Catalog No. 15250061, ThermoFisher Scientific, Waltham, MA, USA) and cell count determined. Cell concentration was adjusted with growth media without phenol red to 5.0×10^5 cells/mL.
Compound 1 was prepared by dissolving neat compounds in DMSO (Catalog No. D8418, Sigma-Aldrich, Inc., St. Louis, MO, USA) to generate 10 mM stock solution and stored at −20° C. The 10 mM DMSO stock solution of Compound 1 was serially diluted (half log) in DMSO to generate 11-point dose series (10000, 3165, 1000, 316, 100, 31.6, 10, 3.2, 1, 0.32, 0.1 μM) in an acoustic ready 384-well low dead volume microplate (Catalog No. LP-0200, Beckman Coulter Life Sciences, Indianapolis, IN, USA). Using an Echo 550 Acoustic Liquid Handler (Beckman Coulter Life Sciences, Indianapolis, IN, USA), 30 nL of serially diluted compound solutions were dispensed in duplicate to each 384-well TC-treated microplate (Catalog No. 3571, Corning, Glendale, CA, USA). 30 nL DMSO was transferred to all control wells.
30 μL of 293T.92 cells suspended in growth media without phenol red at 5.0×10^5 cells/mL (15000 cells/well) were dispensed using a Multidrop Combi Reagent Dispenser (Catalog No. 5840300, ThermoFisher Scientific, Waltham, MA, USA) to each well of columns 1-23 of 384-well TC-treated microplates containing duplicate concentration range of test compounds and DMSO controls. 30 μL of media was dispensed to column 24 as background positive control (P). Plates were spun briefly at 1000 rpm and cells were incubated at 37° C., 5% CO2 for 24 hours. Final concentration of DMSO was 0.1% for all samples.
Cellular BRD4 protein level was determined based on quantification of HiBiT using Nano-Glo® HiBiT Lytic Assay System (Promega). 30 μL Nano-Glo Lytic Assay reagents were added to each well and luminescence was acquired on EnVision® Multilabel Reader (Catalog No. 2104-0010, Perkin Elmer Inc., Dumfries, VA, USA). Cells treated in the absence of the test compound (0.1% DMSO vehicle) were the negative control (N) and wells containing only media were the positive control (P).
Percent response of compound-treated samples (T) were calculated by normalizing to the DMSO treated negative (N) controls on the same microtiter plate after background (i.e., positive control) signal subtraction:
Curve fit and DC50 (concentration that degrades 50% BRD4) determination was performed by 4 parametric logistic fit analysis using software such as GraphPad Prism software (GraphPad Software, LLC, San Diego, CA, USA). […]

T1 sequence (Q13422 whole entry): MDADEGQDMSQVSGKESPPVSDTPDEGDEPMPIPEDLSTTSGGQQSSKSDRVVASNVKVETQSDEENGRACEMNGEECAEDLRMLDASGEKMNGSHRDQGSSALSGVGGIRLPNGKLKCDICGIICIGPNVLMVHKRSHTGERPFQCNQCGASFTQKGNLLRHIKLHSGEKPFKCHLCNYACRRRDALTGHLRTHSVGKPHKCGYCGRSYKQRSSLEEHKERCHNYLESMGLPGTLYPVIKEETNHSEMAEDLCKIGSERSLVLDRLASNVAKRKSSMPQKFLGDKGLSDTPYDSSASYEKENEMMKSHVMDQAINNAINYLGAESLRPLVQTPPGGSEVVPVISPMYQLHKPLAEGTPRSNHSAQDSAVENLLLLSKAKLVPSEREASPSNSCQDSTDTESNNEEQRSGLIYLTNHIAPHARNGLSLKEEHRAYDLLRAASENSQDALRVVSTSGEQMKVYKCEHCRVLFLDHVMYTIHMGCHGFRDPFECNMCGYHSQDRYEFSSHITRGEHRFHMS
T1 sequence (Q96SW2 whole entry): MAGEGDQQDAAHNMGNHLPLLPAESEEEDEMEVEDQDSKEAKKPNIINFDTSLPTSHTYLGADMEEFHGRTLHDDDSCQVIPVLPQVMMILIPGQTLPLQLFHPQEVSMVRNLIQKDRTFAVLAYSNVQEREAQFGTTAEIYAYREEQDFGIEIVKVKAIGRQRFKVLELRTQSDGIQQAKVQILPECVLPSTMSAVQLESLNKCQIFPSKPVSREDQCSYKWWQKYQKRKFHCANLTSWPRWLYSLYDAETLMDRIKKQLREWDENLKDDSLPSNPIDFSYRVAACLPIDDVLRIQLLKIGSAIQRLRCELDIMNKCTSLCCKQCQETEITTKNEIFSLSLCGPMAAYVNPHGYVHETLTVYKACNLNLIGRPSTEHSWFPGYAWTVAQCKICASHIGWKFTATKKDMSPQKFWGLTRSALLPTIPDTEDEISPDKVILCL
T1 sequence (Q16531 2-1140 partner limits assumed): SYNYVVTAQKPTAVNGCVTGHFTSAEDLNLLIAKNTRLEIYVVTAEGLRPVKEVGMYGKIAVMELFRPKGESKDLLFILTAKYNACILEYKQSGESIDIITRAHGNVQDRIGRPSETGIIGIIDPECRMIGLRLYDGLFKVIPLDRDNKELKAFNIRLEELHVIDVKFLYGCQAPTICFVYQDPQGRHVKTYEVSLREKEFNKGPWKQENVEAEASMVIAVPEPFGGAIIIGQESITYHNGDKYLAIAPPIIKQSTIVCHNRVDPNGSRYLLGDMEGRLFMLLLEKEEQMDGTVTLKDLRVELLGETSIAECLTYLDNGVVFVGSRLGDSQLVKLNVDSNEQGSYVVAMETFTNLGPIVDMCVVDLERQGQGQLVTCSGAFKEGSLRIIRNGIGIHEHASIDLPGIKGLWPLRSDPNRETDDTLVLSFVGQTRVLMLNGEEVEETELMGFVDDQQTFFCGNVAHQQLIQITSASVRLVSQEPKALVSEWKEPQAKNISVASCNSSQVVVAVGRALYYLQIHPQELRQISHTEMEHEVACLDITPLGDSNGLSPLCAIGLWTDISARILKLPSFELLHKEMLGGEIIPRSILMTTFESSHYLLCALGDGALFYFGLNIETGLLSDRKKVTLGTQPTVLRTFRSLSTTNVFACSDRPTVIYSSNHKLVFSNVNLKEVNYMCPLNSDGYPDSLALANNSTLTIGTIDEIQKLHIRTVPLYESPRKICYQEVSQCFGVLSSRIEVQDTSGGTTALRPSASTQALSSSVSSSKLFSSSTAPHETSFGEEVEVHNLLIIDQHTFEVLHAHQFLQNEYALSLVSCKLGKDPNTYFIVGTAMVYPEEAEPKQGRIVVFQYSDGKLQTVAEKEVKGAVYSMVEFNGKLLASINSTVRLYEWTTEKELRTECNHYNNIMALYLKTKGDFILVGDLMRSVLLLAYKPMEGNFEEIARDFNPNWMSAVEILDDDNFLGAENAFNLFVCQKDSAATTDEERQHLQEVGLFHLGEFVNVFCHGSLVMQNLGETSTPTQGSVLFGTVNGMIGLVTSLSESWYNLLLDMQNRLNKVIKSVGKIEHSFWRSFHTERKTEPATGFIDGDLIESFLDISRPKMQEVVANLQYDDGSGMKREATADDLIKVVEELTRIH

SMILES: COc1cc(-c2cn(C)c(=O)c(C)c2C)cc(OC)c1CN1CC[C@H](N2CCN(c3ccc(N[C@H]4CCC(=O)NC4=O)cc3F)CC2)C(F)(F)C1 [Compound 1, (S)-3-((4-(4-((S)-1-(2,6-dimethoxy-4-(1,4,5-trimethyl-6-oxo-1,6-dihydropyridin-3-yl)benzyl)-3,3-difluoropiperidin-4-yl)piperazin-1-yl)-3-fluorophenyl)amino)-piperidine-2,6-dione]
- % IKZF1 Remaining Relative to Vehicle Control at 6 hr, Mean (IKZF1; 0.101 nM): 100.8%
- % IKZF1 Remaining Relative to Vehicle Control at 6 hr, Mean (IKZF1; 0.318 nM): 106.4%
- % IKZF1 Remaining Relative to Vehicle Control at 6 hr, Mean (IKZF1; 1.01 nM): 102.9%
- % IKZF1 Remaining Relative to Vehicle Control at 6 hr, Mean (IKZF1; 3.17 nM): 100.4%
- % IKZF1 Remaining Relative to Vehicle Control at 6 hr, Mean (IKZF1; 10.0 nM): 98.5%
- % IKZF1 Remaining Relative to Vehicle Control at 6 hr, Mean (IKZF1; 31.7 nM): 96.0%
- % IKZF1 Remaining Relative to Vehicle Control at 6 hr, Mean (IKZF1; 100 nM): 95.9%
- % IKZF1 Remaining Relative to Vehicle Control at 6 hr, Mean (IKZF1; 317 nM): 91.5%
- % IKZF1 Remaining Relative to Vehicle Control at 6 hr, Mean (IKZF1; 1000 nM): 93.3%
- % IKZF1 Remaining Relative to Vehicle Control at 6 hr, Mean (IKZF1; 3161 nM): 80.8%
- % IKZF1 Remaining Relative to Vehicle Control at 6 hr, Mean (IKZF1; 9990 nM): 74.2%
- degradation of IKZF1 (IKZF1; 10 μM, 6 hours): 25%
- Emax (IKZF1; IKZF1-HiBiT, NCIH929.11 cells, 6 hours, read-out: Mean Emax (%) ± SD): 74.2 ± 8.2%
- effect on degradation of IKZF1 (IKZF1; concentrations up to 1 μM, 6 hours): no significant effect
- % BRD4 Remaining Relative to Vehicle Control at 24 hr, Mean (BRD4; 0.101 nM): 96.1%
- % BRD4 Remaining Relative to Vehicle Control at 24 hr, Mean (BRD4; 0.318 nM): 96.3%
- % BRD4 Remaining Relative to Vehicle Control at 24 hr, Mean (BRD4; 1.01 nM): 96.3%
- % BRD4 Remaining Relative to Vehicle Control at 24 hr, Mean (BRD4; 3.17 nM): 96.1%
- % BRD4 Remaining Relative to Vehicle Control at 24 hr, Mean (BRD4; 10.0 nM): 96.0%
- % BRD4 Remaining Relative to Vehicle Control at 24 hr, Mean (BRD4; 31.7 nM): 96.4%
- % BRD4 Remaining Relative to Vehicle Control at 24 hr, Mean (BRD4; 100 nM): 95.8%
- % BRD4 Remaining Relative to Vehicle Control at 24 hr, Mean (BRD4; 317 nM): 92.5%
- % BRD4 Remaining Relative to Vehicle Control at 24 hr, Mean (BRD4; 1000 nM): 89.2%
- % BRD4 Remaining Relative to Vehicle Control at 24 hr, Mean (BRD4; 3161 nM): 84.4%
- % BRD4 Remaining Relative to Vehicle Control at 24 hr, Mean (BRD4; 9990 nM): 78.1%
- DC50 (BRD4; BRD4-HiBiT, 293T.92 cells, 24 hours, read-out: Mean DC50): > 10 µM
- Emax (BRD4; BRD4-HiBiT, 293T.92 cells, 24 hours, read-out: Mean Emax (%) ± SD): 78.1 ± 3.41%
- effect on the degradation of BRD4 (BRD4; concentrations up to 10 μM, 24 hours): no significant effect
- DC50 (BRD4; summary statement, read-out: DC50 against BRD4): > 1 µM
